These are literature values, as cited in US8163752B2, “Tricyclic anilide heterocyclic CGRP receptor antagonists” (Merck, Sharp & Dohme Corp., priority 2007, dated 2012).

No end group written: not given here.

In data set [1] the test system is headache induced by CGRP infusion. The settings on record: control group (Petersen et al. 2005).
For data set [2], the system named is acute attacks of migraine. The note with it: clinical trials (Olesen et al. 2004).
Data set [3] has as its system facial blood flow. The settings on record: marmoset, electrical stimulation of the trigeminal ganglion (Doods et al. 2000).
Another data set relates to middle meningeal artery. The settings on record: rats, electrical stimulation of the dura mater, prior administration (Williamson et al. 1997).
In data set [4] the test system is facial blood flow. The note with it: rat, trigeminal ganglion stimulation (Escott et al. 1995).

Consider `NCCCC[C@H](NC(=O)[C@@H](Cc1cc(Br)c(O)c(Br)c1)NC(=O)N1CCC(N2Cc3ccccc3NC2=O)CC1)C(=O)N1CCN(c2ccncc2)CC1` [BIBN4096BS], for which, in data set [1], the “prevention of headache induced by CGRP infusion” value is recorded as “able to prevent headache induced by CGRP infusion”. Moreover, in data set [2], the “efficacy in treating acute attacks of migraine” value was “effective in treating acute attacks of migraine”. Besides, the “effect on increase in facial blood flow” value in the data set on facial blood flow [3] is “could be blocked”.

For “CGRP(8-37): a peptide CGRP antagonist; fragment of CGRP that lacks seven N-terminal amino acid residues (VTHRLAGLLSRSGGVVKNNFVPTNVGSKAF; ends and bridges not checked; UniProt P06881 90-119, looked up, fragment)”, the “effect on increase of middle meningeal artery diameter” value in the data set with middle meningeal artery is given as “blocked”. Further, the “effect on increased facial blood flow” value in the data set with facial blood flow [4] is “inhibited”.
